From paper PMC5286435, “Honeybee locomotion is impaired by Am-CaV3 low voltage-activated Ca^2+ channel antagonist” (Scientific Reports, 2017)

Assays:
[1] = target: T1, Am-CaV3 (Apis mellifera, UniProt A0ACM8RFK5); assay: two-electrode voltage clamp in Xenopus oocytes, Ba2+ current block; format: cell-based
T1 construct: gene LOC551883; full channel alpha1 subunit cloned from honeybee, mRNA injected in Xenopus oocytes, without CaVbeta; N-terminal region peptide CFDVPSSDGPSDPS (antibody antigen)

[2] = target: T1, Am-CaV3; assay: as above; format: cell-based; conditions: inhibition (blocker), 10 mM Ba2+, reversible, code printed NNC55-0398 in text, NNC 55-0396 in Figure 1 legend

T1 sequence (A0ACM8RFK5 1-2566): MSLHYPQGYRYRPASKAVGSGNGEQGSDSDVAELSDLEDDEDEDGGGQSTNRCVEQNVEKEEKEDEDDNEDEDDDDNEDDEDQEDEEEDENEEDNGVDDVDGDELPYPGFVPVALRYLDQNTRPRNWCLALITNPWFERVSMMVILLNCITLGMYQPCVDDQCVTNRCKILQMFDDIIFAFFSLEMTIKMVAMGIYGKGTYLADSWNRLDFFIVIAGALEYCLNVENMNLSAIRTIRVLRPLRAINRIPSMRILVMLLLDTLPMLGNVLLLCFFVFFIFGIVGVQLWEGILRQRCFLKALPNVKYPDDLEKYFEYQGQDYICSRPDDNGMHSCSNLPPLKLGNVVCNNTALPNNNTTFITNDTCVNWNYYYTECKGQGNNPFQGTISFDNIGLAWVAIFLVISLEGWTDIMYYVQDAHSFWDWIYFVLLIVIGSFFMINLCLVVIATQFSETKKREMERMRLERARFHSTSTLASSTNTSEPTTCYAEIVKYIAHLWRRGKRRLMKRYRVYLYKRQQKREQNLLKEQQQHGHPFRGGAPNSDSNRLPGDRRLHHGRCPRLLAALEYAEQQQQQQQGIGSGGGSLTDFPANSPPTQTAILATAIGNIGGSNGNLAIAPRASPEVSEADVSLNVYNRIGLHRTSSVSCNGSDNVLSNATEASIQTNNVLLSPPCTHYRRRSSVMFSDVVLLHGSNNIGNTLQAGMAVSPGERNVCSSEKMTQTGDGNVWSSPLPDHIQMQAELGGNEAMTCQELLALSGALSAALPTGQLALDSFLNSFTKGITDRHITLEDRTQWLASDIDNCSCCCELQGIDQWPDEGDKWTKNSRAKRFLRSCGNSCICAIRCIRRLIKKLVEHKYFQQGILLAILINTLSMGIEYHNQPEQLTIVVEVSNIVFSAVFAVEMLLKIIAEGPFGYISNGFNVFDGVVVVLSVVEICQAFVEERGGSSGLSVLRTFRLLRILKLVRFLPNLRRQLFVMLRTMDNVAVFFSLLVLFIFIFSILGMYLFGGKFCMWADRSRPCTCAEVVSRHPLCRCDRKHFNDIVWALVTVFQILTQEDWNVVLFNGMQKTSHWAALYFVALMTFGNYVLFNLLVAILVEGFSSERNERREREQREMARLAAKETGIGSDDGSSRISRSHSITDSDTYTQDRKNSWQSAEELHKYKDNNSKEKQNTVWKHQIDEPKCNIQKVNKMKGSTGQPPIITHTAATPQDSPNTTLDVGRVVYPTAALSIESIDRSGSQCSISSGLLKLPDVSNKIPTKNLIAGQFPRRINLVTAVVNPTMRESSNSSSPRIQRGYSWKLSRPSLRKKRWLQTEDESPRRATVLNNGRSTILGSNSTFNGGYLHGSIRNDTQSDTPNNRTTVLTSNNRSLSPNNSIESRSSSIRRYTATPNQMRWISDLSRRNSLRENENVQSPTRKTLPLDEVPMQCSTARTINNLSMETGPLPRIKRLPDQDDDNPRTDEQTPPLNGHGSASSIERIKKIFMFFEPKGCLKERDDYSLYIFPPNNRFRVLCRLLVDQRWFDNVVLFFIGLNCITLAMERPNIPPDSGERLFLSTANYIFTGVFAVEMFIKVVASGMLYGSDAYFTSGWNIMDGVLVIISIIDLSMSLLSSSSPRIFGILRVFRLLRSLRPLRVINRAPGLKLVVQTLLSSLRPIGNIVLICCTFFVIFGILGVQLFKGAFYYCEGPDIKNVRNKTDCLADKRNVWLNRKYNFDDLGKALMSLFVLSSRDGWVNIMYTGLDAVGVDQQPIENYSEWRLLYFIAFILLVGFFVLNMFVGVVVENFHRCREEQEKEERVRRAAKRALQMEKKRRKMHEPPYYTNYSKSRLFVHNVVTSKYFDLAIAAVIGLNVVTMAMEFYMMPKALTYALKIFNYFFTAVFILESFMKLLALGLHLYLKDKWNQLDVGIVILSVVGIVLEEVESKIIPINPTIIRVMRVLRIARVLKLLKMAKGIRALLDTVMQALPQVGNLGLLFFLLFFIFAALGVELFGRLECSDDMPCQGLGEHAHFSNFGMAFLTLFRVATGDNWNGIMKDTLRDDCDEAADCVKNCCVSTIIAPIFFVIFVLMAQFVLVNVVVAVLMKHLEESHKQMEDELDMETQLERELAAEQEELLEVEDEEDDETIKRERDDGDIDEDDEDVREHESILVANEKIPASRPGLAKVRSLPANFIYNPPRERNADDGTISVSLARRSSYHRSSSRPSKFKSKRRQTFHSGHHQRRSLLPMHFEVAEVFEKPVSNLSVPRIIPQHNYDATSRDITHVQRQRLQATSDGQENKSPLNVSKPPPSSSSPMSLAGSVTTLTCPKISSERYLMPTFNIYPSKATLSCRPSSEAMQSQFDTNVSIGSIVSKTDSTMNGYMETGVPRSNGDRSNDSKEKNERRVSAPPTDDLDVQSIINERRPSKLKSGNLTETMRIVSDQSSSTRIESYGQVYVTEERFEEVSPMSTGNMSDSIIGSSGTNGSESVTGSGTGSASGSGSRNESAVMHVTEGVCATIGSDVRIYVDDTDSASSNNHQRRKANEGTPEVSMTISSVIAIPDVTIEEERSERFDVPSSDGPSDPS

EC50 [1] [µM] | Structure (SMILES) | residual current at 10 μM [2]
3.5 | COCC(=O)O[C@]1(CCN(C)CCCc2nc3ccccc3[nH]2)CCc2cc(F)ccc2[C@@H]1C(C)C [Mi, mibefradil] | 
 | CC(C)[C@H]1c2ccc(F)cc2CC[C@@]1(CCN(C)CCCc1nc2ccccc2[nH]1)OC(=O)C1CC1 [NN, NNC 55-0396] | The mibefradil analogue NNC55-0398 (NN) also had a similar potency
